The results in this text go back to US20090093538A1, “Method for treating cancer” (priority 2007, published 2009).

The subject of one assay is MAPKAPK-2. The experiment in a line: MAPKAPK-2 phosphorylation, Western blot, CEM and CV-1 cells. The settings on record: CEM and CV-1 tumor cells, 0.1 or 0.5 μM. Type of assay: cell-based. As to the method:
(§1) After treatment the cells were lysized and used for Western blot analysis.
Samples were run on a SDS-PAGE gel and proteins were transferred onto a nitrocellulose membrane by a semi-dry transfer. Nitrocellulose was blocked with 5% skim milk in TBS with 0.5% Tween at room temperature for 1 hour and then probed with anti-p-MAPKAPK-2 (Thr334) (#3041, Cell Signaling) antibody. Tubulin was used as a normalization control and was probed with Anti-Tubulin (T9026, Sigma) antibody.
(A western blot detects proteins with antibodies after separation by electrophoresis.)

Assay [1] relates to Hsp70. The experiment in a line: Phase I trial: plasma Hsp70 (sandwich ELISA). The assay is classed as in vivo, human. The settings on record: co-administered with paclitaxel. As to the method:
Plasma Hsp70 was measured by a sandwich ELISA kit (Stressgen Bioreagents Victoria, British Columbia, CANADA) according to a modified protocol in house. In brief, Hsp70 in plasma specimens and serial concentrations of Hsp70 standard were captured onto 96-well plate on which anti-Hsp70 antibody was coated. Then captured Hsp70 was detected with a biotinylated anti-Hsp70 antibody followed by incubation with europium-conjugated streptavidin. After each incubation, unbound materials were removed by washing. Finally, antibody-Hsp70 complex was measured by time resolved fluorometry of europium. Concentration of Hsp70 was calculated from a standard curve.
In general terms: In an ELISA, binding on a coated surface is turned into a signal by an enzyme label.

The subject of assay [2] is human breast tumor MDA-MB-435. The settings on record: Paclitaxel 5 mg/kg + Compound 1 25 or 50 mg/kg, IV, 3 times a week for 3 weeks, nude mice. As to the method: The in vivo anti-cancer enhancing effect of novel compounds was assessed in tumor bearing mice using the tumor growth inhibition assay. Tumor cells were implanted by injection of a tumor cell suspension subcutaneously in the flank of a mouse. […] Tumors were measured two times a week. During the course of this assay, animals were monitored daily for signs of toxicity including body weight loss.

The subject of assay [3] is Hsp70. The experiment in a line: Hsp70 secretion by cultured tumor cells (ELISA). Type of assay: cell-based, human. As to conditions: MDA-MB-435, 0.04 μM or 0.2 μM, 72 h. As to the method:
MDA-MB-435 tumor cells were seeded at 15,000 cells/150 μl/well of 48-well plate and cultured in DMEM supplemented with 10% fetal bovine serum. The compounds were dissolved in dimethyl sulfoxide (DMSO) then a solution was prepared containing 0.04 μM or a 0.2 μM in 25% DMSO and 75% culture medium. […] The medium was then separated from the cells and Hsp70 was measured by ELISA kit from Stressgen. Cell viability was checked by CCK-8 cell count assay (Dojindo) at 88 hr.

Assay [4] has as its system Hs294T (or MDA-MB-435) cells. Kind of assay: Affymetrix transcriptional profiling. Type of assay: cell-based, human. As to conditions: 100 nM, 6 hours. As for the experimental part: RNA was isolated from the cells 6 hours after treatment using the RNeasy kit according to the manufacturers instructions (Qiagen Cat. # 71404) and RNA quality was confirmed by spectrophotometric examination. cDNA was synthesized using the One-Cycle cDNA Synthesis Kit (Affymetrix Cat. # 900431) according to the manufacturers instructions. cDNA was labeled using the GeneChip IVT Labeling Kit (Affymetrix Cat. #900449) and analyzed in duplicate on the Affymetrix Human Genome U133Plus 2.0 gene chip array according to standard Affymetrix protocols. Data sheets from the Affymetrix Gene Chip Scanner 3000 were imported into Microsoft Excel and filtered by the following criteria: greater than or equal to 1.5 fold increase, greater than or equal to 0.4SE between replicates; and 50 (low stringency) or 500 (high stringency) for the lowest signal.
NAC is the rate-limiting amino acid for the production of the antioxidant glutathione. Addition of NAC to cells increases the levels of endogenous glutathione which in turn blocks oxidative stress and ROS generation. […] RNA was isolated from the cells 6 hours after treatment and Affymetrix analysis was performed as above.

The subject of another assay is MDA-MB-435 cells. The experiment in a line: Cell viability (Cell Counting Kit-8). Type of assay: cell-based, human. As to conditions: Homo sapiens, MDA-MB-435; 500 nM, 72 hours post-drug treatment; read-out: reduction of cell viability. As for the experimental part: The cells were further cultured at 37° C. for 72 hours and cell viability was measured with Cell Counting Kit-8 (Dojindo Laboratories, Cat# CK04).

Assay [5] relates to Hsp70. Kind of assay: Cell surface expression of Hsp70, HT29 cells (confocal microscopy). Type of assay: cell-based, human. As to conditions: HT29, 500 nM, 6 hrs. As for the experimental part: After treatment, cells were rinsed one time in PBS then fixed in 2% Paraformaldehyde at room temperature for 20 minutes. Slides with the fixed cells were rinsed with PBS two times. Primary antibody mouse monoclonal anti-Hsp70 (Stressgen SPA-8 10) was diluted 1:100 in PBS and the slides were incubated 1 hour at 37° C. The slides were rinsed two times with PBS. Secondary antibody anti-mouse AlexaFluor 488 (Molecular Probes A-11001) was diluted 1:500 in PBS and the slides were incubated 30 min at 37° C. The slides were rinsed two times in PBS. DAPI (Molecular Probes D-3571) were diluted 1:10,000 in PBS and the slides were incubated at room temperature in dark for 5 min. The slides were rinsed two times in PBS, then once in deionized water and left to dry in dark until almost completely dry. Coverslips were mounted with Prolong Anti-fade Mounting Media (Molecular Probes P-748 1). The images were captured with a monochrome CCD camera SenSys (see FIGS. 27A-D and 28A-D) or by confocal microscopy (see FIG. 29A-E). In FIGS. 27A-D and 28A-D, the bright pink color on the surface of the MCF-7 cells (FIG. 27A-D) or CEM cells (FIG. 28A-D) indicates Hsp70 on the surface of the cells. In FIG. 29A-E the bright green color on the surface of the cell indicates Hsp70 on the surface of the HT29 cells.

In another assay the test system is MSK1. The experiment in a line: MSK1 phosphorylation, Western blot, MDA-MB-435 cells. The assay is classed as cell-based, human. As to conditions: 10, 50, 100, 500 or 1000 nM, 4 hours. As for the experimental part:
as §1
Samples were run on a SDS-PAGE gel and proteins were transferred onto a nitrocellulose membrane by a semi-dry transfer. Nitrocellulose was blocked with 5% skim milk in TBS with 0.5% Tween at room temperature for 1 hour and then probed with anti-p-MSK1 (Thr581) (#9595, Cell Signaling) antibody. The nitrocellulose was then probed with secondary antibodies, HRP-conjugated goat anti-rabbit IgG and HRP-conjugated horse anti-mouse IgG (#7074, #7076, Cell Signaling). LumiGLO reagent, 20× Peroxide (#7003, Cell Signaling) was used to visualize gel (see FIG. 36).
Samples were run on a SDS-PAGE gel and proteins were transferred onto a nitrocellulose membrane by a semi-dry transfer. Nitrocellulose was blocked with 5% skim milk in TBS with 0.5% Tween at room temperature for 1 hour and then probed with anti-p-MSK1 (Thr581) (#9595, Cell Signaling) antibody. Tubulin was used as a normalization control and was probed with Anti-Tubulin (T9026, Sigma) antibody.

With `CN(NC(=O)CC(=O)NN(C)C(=S)c1ccccc1)C(=S)c1ccccc1` [Compound 1], the “phosphorylation of MAPKAPK-2” value in the assay with MAPKAPK-2 is recorded as “induces the phosphorylation of MAPKAPK-2”. In addition, the “induction of Hsp70 protein in plasma” value with Hsp70 [1] is “dose dependent”. Besides, the “anti-tumor activity (tumor volume)” value in assay [2] was “significantly enhanced anti-tumor activity of paclitaxel”. Moreover, in the assay with Hsp70 [3], the “secretion of Hsp70” value is recorded as “increased the secretion of Hsp70 by the cells in a dose dependent manner”. In assay [4], the “increase in transcription of Hsp70” value was “over 300 fold”. Besides, the “induction of heat shock and metallothionein genes” value in assay [4] (Hs294T melanoma cells) was “robustly induced heat shock and metallothionein genes”. For the same molecule, the “gene expression profile (heat shock proteins, metallothioneins, antioxidants)” value in assay [4] (MDA-MB-435 cells) was “induces an oxidative stress signature profile”. Also, in the assay on MDA-MB-435 cells, the cytotoxicity at 0.5 µM was about 90%. In addition, the “Hsp70 on the surface of cells” value with Hsp70 [5] is reported as “bright green color on the surface of the cells indicating Hsp70”. The “phosphorylation of MSK1” value with MSK1 was “induces the phosphorylation of MSK1 in a dose dependent manner”.
